Data on 65 compounds can be found in a melting point compilation (Tetko et al.; mined from patent text by program, amines drawn as free bases though some values may be those of a salt).

A value given as a limit tells only on which side of the number the result lay.

A word on the melting point: it is the temperature, or range, at which the solid turns liquid. The compound `O=P1(O)Oc2c(Cl)cc(Cl)cc2-c2ccc(Cl)cc21` registered a melting point of 260 °C.

For the compound `CC1(C)CC(OC(=O)c2ccccc2)CC(C)(C)N1OC(N)=O`, the melting point lay within 148 to 149 °C.

`COCn1ccnc1C(O)(c1ccccc1)c1cccc(C(F)(F)F)c1` (stereo not given) registered a melting point of 152 to 154 °C.

As to `CCOc1ccc(NC=C(C(=O)Nc2ccccc2)c2cc(C)no2)cc1`, the melting point lay within 114 to 115 °C.

In turn, `O=C1[C@@H]2[C@H](O)CCN2C(=O)N1c1ccc([N+](=O)[O-])c2ccccc12` (relative stereo) displayed a melting point of 255 to 257 °C.

Regarding `Cc1cnnc(-c2cccc(C(F)(F)F)c2)c1`, the melting point is 114 to 116 °C.

As for `NS(=O)(=O)c1cc(Cl)cc(Cl)c1O`, the melting point was over 225 °C.

As to `CC(C)NC(=O)Oc1ccc2c(N(C)CCN3CCOCC3)noc2c1`, the melting point is 99 to 100 °C.

`CCOC(=O)c1ccc(Cn2cnc3ccncc32)cc1` had a melting point of 110 to 112 °C.

Consider `c1ccc(OCC2CN(Cc3nc4ccccc4[nH]3)CCO2)cc1` (racemic), for which the melting point lay within 171 to 172 °C.

The compound `CCOC(=O)N(CCN(C(=O)OCC)C1CCCCC1)C1CCCCC1` had a melting point of 108 °C.

Consider `COc1cc2c(cc1Br)-c1c(-c3cccs3)c3c(n1CC2)C(=O)N(C(C)(C)C)CCC3`, for which the melting point is 232 to 233 °C.

In turn, `CCNc1nc2ccc(CCc3ccc(CN4CCCCC4)o3)cc2o1` displayed a melting point of 98 to 100 °C.

`CCOC(=O)C(=O)Nc1ccc2ccccc2c1` showed a melting point of 118 to 120 °C.

`O=c1c2ccccc2oc2cc(O)ccc12` showed a melting point of 242 °C.

Regarding `CN1CCN(Cc2ccc(NC(=O)c3ccc(Cl)c(C#Cc4ccc(NC5CCC5)nn4)c3)cc2C(F)(F)F)CC1`, the melting point fell in the range of 132 to 133 °C.

Consider `CN(C)C(=O)c1ccc(C(C)(C)C)c(N)c1`, for which the melting point was 186 to 188 °C.

With `CCOC(=O)C1CC(=O)C(C(=O)CC)C(=O)C1` (stereo not given), the melting point lay in the range of 55 to 56 °C.

In turn, `CCCCCS(=O)(=O)NC(=O)/C=C/c1ccc(OCCOC)cc1Nc1ccc(C(F)(F)F)cc1` came in with a melting point of 142 to 143 °C.

`Nc1c(-c2ccc(C(F)(F)F)cc2F)nnn1Cc1ccc(S(N)(=O)=O)cc1`: the melting point lay in the range of 180 to 181 °C.

Regarding `CCC(C(=O)O)c1cccc(Oc2ccccc2Cl)c1O` (stereo not given), the melting point is 143 to 145 °C.

`CC(O)C#Cc1cc(Cl)cc2nc(-c3ccccc3Cl)oc12` (stereo not given) returned a melting point of 129 to 131 °C.

`O=C(CNc1ccccc1)Nc1ccc(Cl)c(Cl)c1`: the melting point lay within 110 to 112 °C.

Turning to `CC(C)NC1=NS(=O)(=O)c2cc(F)c(NC(C)C)cc2N1`, the melting point was in the range of 234 to 237 °C.

The compound `CCCC(C)(c1ccc(O)cc1)c1ccc(O)cc1` gave a melting point of 151 to 152 °C.

On to `Cn1c(C=NNC(N)=S)cnc1[N+](=O)[O-]`, for which the melting point lay in the range of 282 to 287 °C.

`Cc1nc2c(N)nc3ccccc3c2n1CCOCCNC(=O)c1ccccc1` displayed a melting point of 210 to 212 °C.

With `CCCCCCCCCC(CCC)CC(C)CC(O)c1cc(O)ccc1O` (stereo not given), the melting point came to 123 °C.

The compound `Cc1ccc2oc(-c3ccccc3[N+](=O)[O-])cc2c1` registered a melting point of 83 °C.

Turning to `COC(=O)c1cc(-c2ccc(OC)c(F)c2)nn(Cc2ccc(Cl)cc2)c1=O`, the melting point was in the range of 170 to 171 °C.

In turn, `COC(=O)N1CCC(c2n[nH]c3cc(Cl)ccc23)CC1` yielded a melting point of 132 to 134 °C.

With `O=C(O)c1ccc(C(=O)N2CCOCC2)nc1`, the melting point lay in the range of 181 to 183 °C.

In turn, `CCOc1cc(-c2cc(C(F)(F)F)n3ncc(C(=O)Nc4cc(S(=O)(=O)NC(C)(C)CO)sc4Cl)c3n2)ccc1C(F)(F)F` returned a melting point of 234 °C.

In the case of `O=C(c1ccccn1)c1cnn2c(-c3cccnc3)ccnc12`, the melting point was 216 to 218 °C.

As to `CCCCCCOc1ccc(Nc2ncc(F)c(Nc3ccc4c(c3)OCCO4)n2)cc1`, the melting point is 115 to 117 °C.

Compound `NS(=O)(=O)c1ccccc1CN1CCCC1=O` displayed a melting point of 149 to 151 °C.

Regarding `O=C(c1cc(-n2cnnn2)ccc1O)N1CCC(CCO)(c2ccccc2)C1` (stereo not given), the melting point lay within 86 to 96 °C.

`NC(=O)[C@H]1CCCN2CC[C@@H]3c4cc(Cl)ccc4N[C@@H]3[C@H]12` (racemic) registered a melting point of 270 °C.

As to `CCOC(=O)Nc1ccc2c(c1)C(c1ccccc1Cl)=CCC(=O)N2`, the melting point was 241 °C.

`CC[C@H](C)COc1ccc(O)cc1` came in with a melting point of 44 to 45 °C.

With `O=P(O)(O)CNCCc1ccccc1`, the melting point fell in the range of 148 to 150 °C.

On to `N#CC=Cc1ccc(NC(=O)C=CC=C(Nc2cc(Cl)cc(Cl)c2I)C(=O)OCc2ccccc2)cc1`, for which the melting point lay in the range of 132 to 134 °C.

`Cc1c(C(N)=O)ncn1-c1cccc(Cl)c1` came in with a melting point of 179 to 181 °C.

In turn, `CC1=C(C(=O)OC(C)C)C(c2cccc([N+](=O)[O-])c2)C(C(=O)OC2CN(C(c3ccccc3)c3ccccc3)C2)=C(N)N1` (stereo not given) came in with a melting point of 95 to 98 °C.

`CCOC(=O)C=C(C)c1ccc(C=CC=C(C)CCC=C(C)C)cc1` displayed a melting point of 32 to 32.5 °C.

Compound `CC(C)c1nc(CN2C(=O)C3(COc4cc5c(cc43)OCCO5)c3ccccc32)cs1` (stereo not given) gave a melting point of 60 to 63 °C.

`O=C(Nc1cccc(Cl)c1)c1cc(Br)ccc1O` yielded a melting point of 231 to 232 °C.

Take `CCOC(=O)Nc1ccc(OC(=O)NC)cc1C`: the melting point was in the range of 153 to 155 °C.

In turn, `OCCC#Cc1ccc2ccccc2n1` showed a melting point of 89 to 91 °C.

As to `COC12c3ccc(Cl)cc3CC1SC(=CN)N2C` (stereo not given), the melting point is 65 to 70 °C.

`CC(C)(C)OC(=O)NC12CCC1CN(c1c(F)cc3c(=O)c(C(=O)O)cn(C4CC4)c3c1Cl)C2` (stereo not given) yielded a melting point of 200 to 202 °C.

`CCOC(=O)c1nnc2ccc(NC3=CC(=O)CC(C)(C)C3)cc2c1O` yielded a melting point of 274 °C.

On to `CC12CCC(=O)C=C1CCC1C2CCC2(C)C1CC(O)C2NCC(=O)C(F)(F)F` (stereo not given), for which the melting point lay in the range of 217 to 220 °C.

Turning to `COc1ccc(-c2sc(-c3ccccc3)cc2OC(C)=O)cc1`, the melting point was 81 to 82 °C.

`CC(C)C(=O)NS(=O)(=O)c1cccc([N+](=O)[O-])c1` registered a melting point of 136 to 138 °C.

The compound `COc1ccc(COC(=O)CNC=S)cc1` came in with a melting point of 107 to 108 °C.

Consider `CCCCCCCCCCCCCCCCCCC(CO)CC1(C)OCCO1` (stereo not given), for which the melting point is 34 to 35 °C.

`CN(Cc1cccc2c1CN(C1CCC(=O)NC1=O)C2=O)C(=O)Nc1ccc2ccccc2c1` (stereo not given) yielded a melting point of 216 to 218 °C.

As to `COC(=O)/C=C/C1=C(c2ccc(OC)cc2)c2ccc(OC)cc2CC1`, the melting point was 116 to 118 °C.

Compound `Cc1coc(NC(=S)Nc2c(C)cccc2Cl)n1` yielded a melting point of 222 °C.

`CCOC(=O)CCCNC1N=C(c2ccccc2Cl)c2c(cn(C)c2C)N(C)C1=O` (stereo not given) returned a melting point of 105 to 107 °C.

`Cc1ccc2c3c(ccc2n1)OC[C@H](CN1CCN(c2ccc(C)c(C)c2)CC1)O3` came in with a melting point of 118 to 120 °C.

`CCCn1nc2c(N)nc3ccccc3c2c1CCNC(=O)CC` returned a melting point of 184 to 185 °C.

For the compound `CC(O)=C(C#N)C(=O)c1ccc(F)cc1`, the melting point was in the range of 65 to 67 °C.

With `O=C1C(=O)c2ccccc2C2=C1SCC1(CCN(C(=O)C(Cl)c3ccccc3)CC1)O2` (stereo not given), the melting point fell in the range of 125 to 126 °C.
